These results are taken from patent publication US20230041743A1, “1,8-NAPHTHYRIDIN-2-ONE COMPOUNDS FOR THE TREATMENT OF AUTOIMMUNE DISEASE” (Hoffmann-La Roche Inc., priority 2019, published 2023).

The assay deals with T1, human TLR9 (Homo sapiens, UniProt Q9NR96).
T1 construct: host or cells: HEK293 (HEK-Blue hTLR9)
T1 sequence (Q9NR96 26-1032): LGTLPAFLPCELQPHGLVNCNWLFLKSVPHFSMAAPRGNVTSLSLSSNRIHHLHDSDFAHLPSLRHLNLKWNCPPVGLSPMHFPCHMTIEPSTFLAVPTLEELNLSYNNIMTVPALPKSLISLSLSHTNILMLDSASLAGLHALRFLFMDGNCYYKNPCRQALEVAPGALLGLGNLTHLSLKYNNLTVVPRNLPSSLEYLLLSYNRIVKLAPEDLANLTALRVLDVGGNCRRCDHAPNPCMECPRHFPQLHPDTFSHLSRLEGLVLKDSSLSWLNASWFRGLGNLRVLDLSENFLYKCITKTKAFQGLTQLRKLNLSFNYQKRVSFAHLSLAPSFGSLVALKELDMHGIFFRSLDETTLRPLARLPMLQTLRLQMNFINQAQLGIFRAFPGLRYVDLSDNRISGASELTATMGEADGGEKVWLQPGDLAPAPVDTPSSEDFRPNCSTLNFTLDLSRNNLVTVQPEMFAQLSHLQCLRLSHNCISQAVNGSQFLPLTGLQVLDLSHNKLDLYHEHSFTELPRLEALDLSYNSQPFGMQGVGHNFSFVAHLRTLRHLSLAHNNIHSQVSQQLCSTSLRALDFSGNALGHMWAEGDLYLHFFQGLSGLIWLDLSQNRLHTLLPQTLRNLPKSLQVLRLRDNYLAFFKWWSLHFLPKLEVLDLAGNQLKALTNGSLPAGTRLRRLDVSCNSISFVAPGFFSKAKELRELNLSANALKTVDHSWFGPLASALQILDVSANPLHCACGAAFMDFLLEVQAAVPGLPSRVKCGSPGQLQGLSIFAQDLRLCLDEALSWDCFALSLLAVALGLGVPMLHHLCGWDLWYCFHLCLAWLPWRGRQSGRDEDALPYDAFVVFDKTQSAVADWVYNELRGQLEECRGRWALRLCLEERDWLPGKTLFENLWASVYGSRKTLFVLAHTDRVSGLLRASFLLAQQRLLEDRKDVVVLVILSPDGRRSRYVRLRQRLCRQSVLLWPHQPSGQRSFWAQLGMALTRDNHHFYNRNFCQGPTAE
Briefly: HEK293-Blue-hTLR-9 cells assay (SEAP reporter, ODN2006 stimulation). It is filed as cell-based. The conditions noted are these: HEK293-Blue-hTLR9 cells, ODN2006 ligand, 20 hrs incubation; read-out: HEK/hTLR9 IC50. From the text:
HEK293-Blue-hTLR-9 Cells Assay:
A stable HEK293-Blue-hTLR-9 cell line was purchased from InvivoGen (Cat. #: hkb-htlr9, San Diego, Calif., USA). These cells were originally designed for studying the stimulation of human TLR9 by monitoring the activation of NF-κB. A SEAP (secreted embryonic alkaline phosphatase) reporter gene was placed under the control of the IFN-β minimal promoter fused to five NF-κB and AP-1-binding sites. The SEAP was induced by activating NF-κB and AP-1 via stimulating HEK-Blue hTLR9 cells with TLR9 ligands. Therefore the reporter expression was declined by TLR9 antagonist under the stimulation of a ligand, such as ODN2006 (Cat. #: tlrl-2006-1, Invivogen, San Diego, Calif., USA), for incubation of 20 hrs. The cell culture supernatant SEAP reporter activity was determined using QUANTI-Blue™ kit (Cat. #: rep-qb1, Invivogen, San Diego, Calif., USA) at a wavelength of 640 nm, a detection medium that turns purple or blue in the presence of alkaline phosphatase.
HEK293-Blue-hTLR9 cells were incubated at a density of 250,000˜450,000 cells/mL in a volume of 170 μL in a 96-well plate in Dulbecco's Modified Eagle's medium (DMEM) containing 4.5 g/L glucose, 50 U/mL penicillin, […], 2 mM L-glutamine, 10% (v/v) heat-inactivated fetal bovine serum with addition of 20 μL test compound in a serial dilution in the presence of final DMSO at 1% and 10 μL of 20 uM ODN2006 in above DMEM, perform incubation under 37° C. in a CO2 incubator for 20 hrs. Then 20 μL of the supernatant from each well was incubated with 180 μL Quanti-blue substrate solution at 37° C. for 2 h and the absorbance was read at 620˜655 nm using a spectrophotometer. The signaling pathway that TLR9 activation leads to downstream NF-κB activation has been widely accepted, and therefore similar reporter assay was modified for evaluating TLR9 antagonist.
As for `C[C@@H]1CN(c2cc(=O)n(C)c3ncccc23)C[C@@H]2c3ccc(N4C[C@@H]5C[C@H]4CN5)cc3CN12` [Example 19, 4-[(4R,10bS)-8-[(1S,4S)-2,5-diazabicyclo[2.2.1]heptan-2-yl]-4-methyl-3,4,6,10b-tetrahydro-1H-pyrazino[2,1-a]isoindol-2-yl]-1-methyl-1,8-naphthyridin-2-one], the IC50 worked out at 0.116 µM.

Turning to `C[C@@H]1CN(c2cc(=O)n(C)c3ncccc23)C[C@@H]2c3ccc(N4C[C@H]5C[C@@H]4CN5)cc3CN12` [Example 20, 4-[(4R,10bS)-8-[(1R,4R)-2,5-diazabicyclo[2.2.1]heptan-2-yl]-4-methyl-3,4,6,10b-tetrahydro-1H-pyrazino[2,1-a]isoindol-2-yl]-1-methyl-1,8-naphthyridin-2-one], the IC50 turned out to be 0.096 µM.

As to `C[C@@H]1CN(c2cc(=O)n(C)c3ncccc23)C[C@@H]2c3ccc(N4CC5CCC(C4)N5)cc3CN12` [Example 21, 4-[(4R,10bS)-8-(3,8-diazabicyclo[3.2.1]octan-3-yl)-4-methyl-3,4,6,10b-tetrahydro-1H-pyrazino[2,1-a]isoindol-2-yl]-1-methyl-1,8-naphthyridin-2-one], the IC50 stood at 0.138 µM.

Consider `C[C@@H]1CN(c2cc(=O)n(C)c3ncccc23)C[C@@H]2c3ccc(N4CCOC[C@H](N)C4)cc3CN12` [Example 22, 4-[(4R,10bS)-8-[(6R)-6-amino-1,4-oxazepan-4-yl]-4-methyl-3,4,6,10b-tetrahydro-1H-pyrazino[2,1-a]isoindol-2-yl]-1-methyl-1,8-naphthyridin-2-one], for which the IC50 stood at 0.113 µM.

For the compound `C[C@@H]1CN(c2cc(=O)n(C)c3ncccc23)C[C@@H]2c3ccc(OCCN(C)C)cc3CN12` [Example 23, 4-[(4R,10bS)-8-[2-(dimethylamino)ethoxy]-4-methyl-3,4,6,10b-tetrahydro-1H-pyrazino[2,1-a]isoindol-2-yl]-1-methyl-1,8-naphthyridin-2-one], the IC50 was 0.213 µM.

Consider `C[C@@H]1CN(c2cc(=O)n(C)c3ncccc23)C[C@@H]2c3ccc(C4CCNCC4)cc3CN12` [Example 24, 4-[(4R,10bS)-4-methyl-8-(4-piperidyl)-3,4,6,10b-tetrahydro-1H-pyrazino[2,1-a]isoindol-2-yl]-1-methyl-1,8-naphthyridin-2-one], for which the IC50 turned out to be 0.156 µM.

Turning to `C[C@@H]1CN(c2cc(=O)n(C)c3ncccc23)C[C@@H]2c3ccc(C4CCCNC4)cc3CN12` (stereo partly drawn) [Example 25, 4-[(4R,10bS)-4-methyl-8-(3-piperidyl)-3,4,6,10b-tetrahydro-1H-pyrazino[2,1-a]isoindol-2-yl]-1-methyl-1,8-naphthyridin-2-one], the IC50 worked out at 0.124 µM.

For `C[C@@H]1CN(c2cc(=O)n(C)c3ncccc23)C[C@@H]2c3ccc(C4CCNC4)cc3CN12` (stereo partly drawn) [Example 26, 4-[(4R,10bS)-4-methyl-8-pyrrolidin-3-yl-3,4,6,10b-tetrahydro-1H-pyrazino[2,1-a]isoindol-2-yl]-1-methyl-1,8-naphthyridin-2-one], the IC50 is 0.132 µM.

With `C[C@@H]1CN(c2cc(=O)n(C)c3ncccc23)C[C@@H]2c3ccc([C@H]4CC[C@H](N5CCOCC5)CC4)cc3CN12` [Example 27A, 4-[(4R,10bS)-4-methyl-8-(trans-4-morpholinocyclohexyl)-3,4,6,10b-tetrahydro-1H-pyrazino[2,1-a]isoindol-2-yl]-1-methyl-1,8-naphthyridin-2-one], the IC50 was found to be 0.099 µM.

On to `C[C@@H]1CN(c2cc(=O)n(C)c3ncccc23)C[C@@H]2c3ccc([C@H]4CC[C@@H](N5CCOCC5)CC4)cc3CN12` [Example 27B, 4-[(4R,10bS)-4-methyl-8-(cis-4-morpholinocyclohexyl)-3,4,6,10b-tetrahydro-1H-pyrazino[2,1-a]isoindol-2-yl]-1-methyl-1,8-naphthyridin-2-one], for which the IC50 amounted to 0.105 µM.
